Series [1] deals with T1, Salmonella typhimurium neuraminidase (Salmonella typhimurium, UniProt P29768).
T1 construct: purchased Sigma
Description: biochemical. The series is classed as biochemical.

For series [2], the target named is Clostridium perfringens neuraminidase. The series is classed as biochemical. As to conditions: for IC50: pH 6.5, read-out: Solution phase IC50, Clostridium perfringens.
For series [3], the target named is T2, Vibrio cholerae neuraminidase (Vibrio cholerae serotype O1, UniProt P0C6E9).
T2 construct: purchased Sigma
The series is described as follows: biochemical. The series is classed as biochemical.

For series [4], the target named is T3, α2,6-sialyltransferase (Rattus norvegicus, UniProt P13721).
T3 sequence (P13721 1-403): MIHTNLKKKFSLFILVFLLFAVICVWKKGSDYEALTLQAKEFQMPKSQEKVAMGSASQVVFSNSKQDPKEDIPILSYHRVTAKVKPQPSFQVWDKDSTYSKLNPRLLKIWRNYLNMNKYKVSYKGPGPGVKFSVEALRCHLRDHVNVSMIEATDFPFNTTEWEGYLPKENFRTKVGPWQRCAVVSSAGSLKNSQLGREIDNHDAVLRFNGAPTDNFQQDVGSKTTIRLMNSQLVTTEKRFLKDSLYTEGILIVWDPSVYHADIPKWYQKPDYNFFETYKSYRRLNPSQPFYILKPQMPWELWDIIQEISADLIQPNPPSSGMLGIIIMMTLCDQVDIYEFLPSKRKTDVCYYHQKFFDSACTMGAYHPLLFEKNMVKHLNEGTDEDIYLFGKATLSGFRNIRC
Particulars: read-out: KM value; literature (Gross et al. 1989); cited from earlier work.

Series [5] concerns the target T3, α2,6-sialyltransferase. Description: Sialyltransferase competitive assay. Also noted: purchased Calbiochem. The series is classed as biochemical.
For series [6], the target named is T3, α2,6-sialyltransferase. Description: Substrate recognition by sialyltransferase (FRET donor/acceptor). It is filed as biochemical. Also noted: purchased Calbiochem. Particulars: acceptor 0.2 mM, donor 0.1 mM, sialyltransferase 0.2 mU, FIG. 15.
Another series has as its system α2,3-sialyltransferase. The series is described as above. It is filed as biochemical. Particulars: acceptor 0.2 mM, donor 0.1 mM, sialyltransferase 0.2 mU, FIG. 15.
The target of series [7] is T1, Salmonella typhimurium neuraminidase. Particulars: value in brackets marked lit; read-out: Solution phase IC50, Salmonella typhimurium, literature value; cited from earlier work.

Like-named read-outs stand apart in the source and are kept apart here. A value given as a limit tells only on which side of the number the result lay.

T2 sequence (P0C6E9 25-781 limits assumed): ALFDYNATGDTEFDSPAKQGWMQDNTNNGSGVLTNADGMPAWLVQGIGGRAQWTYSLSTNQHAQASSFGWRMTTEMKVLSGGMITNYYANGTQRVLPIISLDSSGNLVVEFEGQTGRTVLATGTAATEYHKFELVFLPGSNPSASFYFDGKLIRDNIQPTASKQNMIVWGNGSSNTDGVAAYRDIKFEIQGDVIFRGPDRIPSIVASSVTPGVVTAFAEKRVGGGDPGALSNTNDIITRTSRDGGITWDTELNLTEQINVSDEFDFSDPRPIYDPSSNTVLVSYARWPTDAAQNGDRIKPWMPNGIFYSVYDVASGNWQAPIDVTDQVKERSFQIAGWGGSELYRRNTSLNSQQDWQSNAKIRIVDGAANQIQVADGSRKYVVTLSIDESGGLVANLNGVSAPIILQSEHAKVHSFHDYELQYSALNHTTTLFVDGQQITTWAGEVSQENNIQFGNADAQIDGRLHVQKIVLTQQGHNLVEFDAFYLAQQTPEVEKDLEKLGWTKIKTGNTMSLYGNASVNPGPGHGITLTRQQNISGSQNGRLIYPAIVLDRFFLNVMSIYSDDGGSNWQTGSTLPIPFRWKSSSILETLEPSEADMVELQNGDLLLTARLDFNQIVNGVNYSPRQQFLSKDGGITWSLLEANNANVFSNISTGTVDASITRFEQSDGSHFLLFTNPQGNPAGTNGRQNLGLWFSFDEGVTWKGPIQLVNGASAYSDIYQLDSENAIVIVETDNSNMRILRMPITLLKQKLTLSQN
T1 sequence (P29768 whole entry): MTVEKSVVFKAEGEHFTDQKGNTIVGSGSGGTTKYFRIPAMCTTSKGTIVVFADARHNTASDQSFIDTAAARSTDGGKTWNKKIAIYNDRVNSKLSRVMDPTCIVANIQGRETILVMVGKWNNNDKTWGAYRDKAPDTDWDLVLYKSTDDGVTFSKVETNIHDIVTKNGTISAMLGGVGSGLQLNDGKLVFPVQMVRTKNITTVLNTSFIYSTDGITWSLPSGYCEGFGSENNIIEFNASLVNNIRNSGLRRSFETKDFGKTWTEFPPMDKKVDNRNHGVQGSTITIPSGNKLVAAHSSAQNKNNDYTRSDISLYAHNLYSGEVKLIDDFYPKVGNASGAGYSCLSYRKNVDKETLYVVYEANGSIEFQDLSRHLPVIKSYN

For `CC1=NC2C(O)C=C(C(=O)O)OC2C(CC(=O)N[C@@H](C(N)=O)C2CCCCC2)O1` (stereo partly shown), the IC50 is greater than 2000 µM in series [1], 1600 µM in series [2] and greater than 2000 µM in [3].
Turning to `CC(=O)NC1C(N)C=C(C(=O)O)OC1[C@H](O)[C@H](O)CO` (stereo partly shown), the IC50 in series [1], in series [2] and in series [3] was greater than 2000 µM in each case.
With `NC(=O)C(Cc1ccc(O)c([N+](=O)[O-])c1)NC(=O)CCC(=O)NCCOCCOCCNC(=O)Cc1cc(=O)oc2cc(O)ccc12` (stereo not shown) [Compound 42, N-[1-Carbamoyl-2-(4-hydroxy-3-nitro-phenyl)-ethyl]-N′-[2-(2-{2-[2-(7-hydroxy-2-oxo-2H-chromen-4-yl)-acetylamino]-ethoxy}-ethoxy)-ethyl]-succinamide], the melting point stood at 115 °C.
Still for that read-out and setting: to `NC(=O)C(Cc1ccc(O)c([N+](=O)[O-])c1)NC(=O)Cc1cc(=O)oc2cc(O)ccc12` (stereo not shown) [Compound 41, 3-(4-Hydroxy-3-nitro-phenyl)-2-[2-(7-hydroxy-2-oxo-2H-chromen-4-yl)-acetylamino]-propionamide] belongs 203 °C.
Turning to `CC(=O)NC1C(O)CC(OP(=O)(O)OC[C@H]2O[C@@H](n3ccc(N)nc3=O)[C@@H](O)C2O)(C(=O)O)OC1[C@H](O)[C@H](O)CO` (stereo partly shown) [CMP-Neu5Ac, cytidine monophosphate N-acetylneuraminic acid], the Km at α2,6-sialyltransferase [4] was 45 µM. The same compound gave an IC50 on α2,6-sialyltransferase [5] of 85 µM.
For `N[C@@H](Cc1ccc(O)c([N+](=O)[O-])c1)C(=O)NCCO[C@@H]1O[C@H](CO)[C@@H](O[C@@H]2O[C@H](CO)[C@H](O)[C@H](O)[C@H]2O)[C@H](O)[C@H]1O` [acceptor 64, 2-(3-Nitro-L-tyrosyl-amide)ethyl β-D-galactopyransyl-(1→4)-O-β-D-glucopyranoside], the “Substrate recognition by α2,6-sialyltransferase” value at α2,6-sialyltransferase [6] is given as “poor substrate recognition”. For the same compound, the “Substrate recognition by α2,3-sialyltransferase” value in the series on α2,3-sialyltransferase was “poor substrate recognition”.
For `CC(=O)N[C@H]1[C@H](OCCNC(=O)[C@@H](N)Cc2ccc(O)c([N+](=O)[O-])c2)O[C@H](CO)[C@@H](O[C@@H]2O[C@H](CO)[C@H](O)[C@H](O)[C@H]2O)[C@@H]1O` [acceptor 69, 2-(3-Nitro-L-tyrosyl-amide)ethyl β-D-galactopyransyl-(1→4)-O-2-acetamido-2-deoxy-β-D-glucopyranoside], the “Substrate recognition by α2,6-sialyltransferase” value at α2,6-sialyltransferase [6] is “good substrates”. In addition, the “Substrate recognition by α2,3-sialyltransferase” value in the series with α2,3-sialyltransferase is reported as “good substrates”.
As to `CC(=O)NC1C(NC(=N)N)C=C(C(=O)O)OC1[C@H](OC(N)=O)[C@H](O)CO` (stereo partly shown), the IC50 in series [1] is greater than 2000 µM; in series [2] it was greater than 2000 µM; in series [3] it was 250 µM.
With “CMP-5-(7-hydroxy-4-coumarinyl-acetamido)-NeuAc [donor 55]”, the “Substrate recognition by α2,6-sialyltransferase” value at α2,6-sialyltransferase [6] was “good substrates”. Moreover, in the series on α2,3-sialyltransferase, the “Substrate recognition by α2,3-sialyltransferase” value is on record as “good substrates”.
Regarding `CC(=O)NC1C(O)C=C(C(=O)O)OC1[C@H](O)[C@H](O)CO` (stereo partly shown) [2-deoxy-2,3-dehydro-N-acetylneuraminic acid], in series [1], the IC50 is 310 µM and the “Inhibition of Salmonella typhimurium neuraminidase” value is “good inhibitor”. Also, in [7], the IC50 was 350 µM. Moreover, in series [2], the “Inhibition of Clostridium perfringens neuraminidase” value is “good inhibitor” and the IC50 was 4 µM. Besides, the “Inhibition of Vibrio cholerae neuraminidase” value in series [3] is “good inhibitor”.
Take `CC(=O)NC1C(NC(=N)N)C=C(C(=O)O)OC1[C@H](O)[C@H](O)CO` (stereo partly shown) [4-guanidino-2-deoxy-2,3-didehydro-N-acetylneuraminic acid]: in [1], the IC50 was greater than 2000 µM. Moreover, in series [3], half-maximal inhibition (IC50) required 200 µM and the “Inhibition of Vibrio cholerae neuraminidase” value is recorded as “inhibitor”.
For the compound `CC(=O)NC1C(O)CC(O)(C(=O)O)OC1[C@H](O)[C@H](O)CO` (stereo partly shown), the IC50 in series [1], in [2] and in series [3] was greater than 2000 µM throughout.

For orientation: IC50 means the concentration needed to halve the response being measured. For orientation: melting point means the temperature, or range, at which the solid turns liquid. What is called Km is the substrate concentration at which the rate is half of its maximum.

These data come from patent publication US7527934B2, “Labeled substrate conjugates for identifying enzyme inhibitors” (priority 2004, dated 2009).
